What was measured:
ID8 ovarian cancer cells = test: Cytokine and chemokine secretion by ID8 cells (array, RT-PCR, ELISA); format: cell-based, murine
Description: Cytokine Array—Supernatant from cultured cells was stored at −20° C. for batch analyses to measure cytokines. The mouse cytokine array (R&D Systems, Inc.) was purchased and used to detect the secretion of 111 cytokines in the experiments groups. These Proteome Profiler Arrays were performed according to the manufacturer's protocol.
The effect of EP-100 on cytokines and chemokines was analyzed using a proteome profiler murine cytokine array in the CD8^+ T cell activation in ID8 ovarian cancer cells. […] LIF and CXCL10 secretion were decreased after treatment with EP-100 for 4 hours. LDL receptor secretion was increased by EP-100 at 2 hours and 12 hours, while IL1α, CCL20, VEGF, and IL33 were secreted after EP-100 treatment (FIG. 19 B). Among the cytokines, IL33 inhibited tumor growth and modified the tumor microenvironment. Using RT-PCR and ELISA the induction of IL33 through EP-100 was analyzed. IL33 mRNA expression was increased in 30 minutes after EP-100 treatment, and secretion was increased after 2 hours of EP-100 treatment, and this effect continued through 12 hours (FIGS. 19C and 19D). […] To determine the IL33 role in the tumor microenvironment, we tested the IL33 effect on T cell differentiation in vitro. We isolated naïve CD4^+ T cells from mouse […], and further cultured for 5 days in CD3 and CD28, and mouse IL-2 containing media to differentiated CD8^+ T cell. LHRH-R mRNA expression and EP-100-induced cytoic effect was lower in both naïve T cells and CD8^+ T cells than in ID8 cells (FIGS. 20A and 20B).

IF5 = test: Cytotoxicity in IF5 murine ovarian cancer cells (24 h); format: cell-based; details: IF5, 24 h; read-out: In vitro activity (IC50)
Description: Murine ovarian cancer cell lines (ID8, IG10, IF5, and 2Cl2) were grown in RPMI 1640 media with 10% Fetal Bovine Serum. Cells were typically seeded (3000 cells per well) into 96 well plates and media was replaced after 48 hours of incubation. […] Phor18-LHRH was provided in lyophilized form was dissolved in saline and added to cells. The duration of incubation was 24 h at 37° C. Cell viability was assessed after 24 hours using a luminometric assays (Promega, CellTiter-0Glo 2.0, G9243). Controls contained saline or 0.1% triton as reference for 0 and 100% cell death, respectively.
Data were processed and analyzed using GraphPad Prism version 7.00 for Windows (GraphPad Software, San Diego California). Statistical analysis for significance was determined by a two-tailed Student's T-test. Each study was conducted to achieve an […] of at least 6.
In vitro activities were expressed as IC50 values for each cell line, time point and compound tested that were calculated using the Hill equation (Graph Pad Prizm software).

242 = test: Cytotoxicity in cell line 242 (Table 7); format: cell-based, murine; details: 242, 24 h; read-out: In vitro activity (IC50)
MDA-MB-435 cells = test: Fluorescence microscopy of MDA-MB-435 cells; format: cell-based, human; details: 10 μM, 5 minutes exposure
Description: In brief, human melanoma cells (MDA-MB-435, passage #252) were seeded onto culture dishes. The following markers were introduced prior to adding EP-100; DRAQ5™(Alexis Corporation)—blue—was used for staining of the nucleus and Mito Tracker® Red CMXRos (M7512) (Molecular Probes, Inc. OR) were applied for visualizing intact mitochondria. Cell membranes were stained with wheat germ alexa fluor green conjugates (Molecular Probes, Inc. OR).
Cells were loaded first with Mitotracker dye, according to the manufacturer's recommendation. Phor 18-LHRH (338613) reconstituted in saline was added at a final concentration of 10 μM and incubated for 5-10 minutes. Culture dishes with saline only served as controls. The supernatant was removed, and the remaining cells prepared for fluorescence microscopy imaging.

immune cells in ascites = test: Immune cell profiling (FACS) of ID8 ascites; format: in vivo, C57BL/6 mice
Description: Immune Profiling Assay—Immunophenotypic analyses of splenocytes and single cell suspensions from tumors were assessed by flow cytometry. Abs to stain for MDSCs were CD11b-APC (clone M1/70; BD Biosciences), Ly6G-FITC (clone 1A8; BD Biosciences) and Ly6C-PE (clone AL-21; BD Biosciences). For T-cell activation markers, cells were stained with Ab specific for CD4-PE-Cy7 (clone RM4-5; BD Biosciences), CD8-PE-Cy7 (clone 53-6.7; BD Biosciences), CD62L-PE (clone MEL-14; BD Biosciences) and CD44-FITC (clone IM7; Biolegend). Cells were incubated on ice for 30 min, washed and fixed in phosphate buffered saline (PBS) containing 1% formalin for flow cytometric analysis on an LSRII flow cytometer (BD Biosciences).
Immune cell profiling was conducted on ascites (N=3) and tumor tissue (N=3) by processing the samples by the following method and analyzed through Fluorescent Activated Cell Sorting (FACS), see Table 8. Cells were incubated for 30 minutes on ice, washed and fixed in phosphate buffered saline containing 1% formalin for flow cytometric analysis on an LSRII flow cytometer.

PD-L1 = PD-L1 expression in ID8 and IG10 cells after EP-100 (RT-PCR, Western blot); format: cell-based, murine
Description: To determine the potential role of EP-100 in immune activation, the effect on PD-L1 expression in murine ovarian cancer cells was determined in the presence of EP-100. […] PD-L1 mRNA was increased with treatment with as low as 0.5 μm EP-100 for 4 hours, and PD- L1 protein was increased after 6 hours of treatment.

MDA-MB-435S xenograft = test: MDA-MB-435S xenograft, kinetics after a single injection; format: in vivo, Nu/Nu mice; details: 0.2 and 2 mg/kg
Description: In brief, Nu/Nu female mice, outbred strain, age 5 weeks (Charles River), were injected (s.c.) into the interscapular region with a MDA-MB-435S (passage #249)/Matrigel suspension (2.4×10^6 cells/mouse) as described in Example 10. Phor 18-LHRH (338613) (ID: 338613 lot #P080401) (0.2, and 2 mg/kg) were reconstituted in USP saline prior to dosing. The doses were given as a single bolus intravenous injection via lateral tail vein.
Mice were sacrificed 1, 2 and 16 hours after treatment with Phor 18-LHRH (338613) or saline. At study endpoint body weight, tumor weights were determined, and tumors were fixed in phosphate buffered 10% formalin.

“KFAKFAKKFAKFAKKFAKQHWSYGLRPG [Phor18-LHRH]” was tested, and the “time to increased IL33 secretion” value (ID8 ovarian cancer cells; ID8 cells, ELISA, continued through 12 hours) was 2 h, the “time to increased IL33 mRNA expression” value (ID8 ovarian cancer cells; ID8 cells, RT-PCR) was 30 min and the “secretion of cytokines and chemokines (array)” value (ID8 ovarian cancer cells; ID8 cells, LIF, CXCL10, IL1α, CCL20, VEGF, IL33, LDL receptor) was “increased secretion of various molecules”. The IL33 secretion (ID8 ovarian cancer cells; in vitro, FIG. 19D) was “IL33 secretion was increased by EP-100”, the IC50 (IF5) was 1.01 µM and the IC50 242 was 1.38 µM. The “plasma membrane, fluorescence microscopy” value (MDA-MB-435 cells) was “disintegration of the plasma membrane”, the “increase of CD8+ T/Treg ratio” value (immune cells in ascites) was 7 fold and the “Monocytic myeloid suppressor cells (mMDSC)” value (immune cells in ascites; % of CD45+ cells, controls 0.62±0.08%) was 0.21±0.01%. For the same sequence, the “CD8+ T cells” value (immune cells in ascites; % of CD45+ cells, controls 1.9±0.3%) was 8.9±2.4%, the B cells (immune cells in ascites; % of CD45+ cells, controls 9.8±1.8%) was 1.5±0.14% and the “Natural killer (NK) cells” value (immune cells in ascites; % of CD45+ cells, controls 10.3±0.8%) was 10.2±0.08%. The “Dendritic cells (DC)” value (immune cells in ascites; % of CD45+ cells, controls 18.5±1.1%) was 15.1±0.2%, the Macrophages (immune cells in ascites; % of CD45+ cells, controls 23.8±5.1%) was 25.6±0.7% and the “CD45+ cell fraction of life cells” value (immune cells in ascites; Mean±SEM, controls 10.5±1.8%) was 15.6±2.1%. For the same sequence, the “ratio of CD8+ T cells to regulatory T cells” value (immune cells in ascites; controls 2.6±0.6) was 17.32±4.1, the “lowest concentration increasing PD-L1 mRNA” value (PD-L1; 4 hours) was 0.5 μm and the “PD-L1 mRNA and protein levels” value (PD-L1; ID8 and IG10 cells, protein after 6 hours) was “both PD-L1 mRNA and protein levels were increased”. The “time to destruction of tumors after injection” value (MDA-MB-435S xenograft) was 1 h.

— patent US20240228542A1, “LYTIC DOMAIN FUSION CONSTRUCTS, CHECKPOINT INHIBITORS, AND METHODS OF MAKING AND USING SAME” (A28 Therapeutics Inc., priority 2020, published 2024)
